Measurements as given in ChEMBL document CHEMBL1201862, “PubChem BioAssay data set” (2004).
Active and inactive are the calls of the source.

Key:
[1] = biological target: T1, Eukaryotic translation initiation factor 2-alpha kinase 3 (Homo sapiens, UniProt Q9NZJ5); assay: Counterscreen assay for PERK inhibitors: Dose response cell-based high throughput screening assay to measure inhibition of PERK at 6 hours. [Related pubchem assays: 1522, 1416 ]; type: functional
T1 sequence (Q9NZJ5 whole entry): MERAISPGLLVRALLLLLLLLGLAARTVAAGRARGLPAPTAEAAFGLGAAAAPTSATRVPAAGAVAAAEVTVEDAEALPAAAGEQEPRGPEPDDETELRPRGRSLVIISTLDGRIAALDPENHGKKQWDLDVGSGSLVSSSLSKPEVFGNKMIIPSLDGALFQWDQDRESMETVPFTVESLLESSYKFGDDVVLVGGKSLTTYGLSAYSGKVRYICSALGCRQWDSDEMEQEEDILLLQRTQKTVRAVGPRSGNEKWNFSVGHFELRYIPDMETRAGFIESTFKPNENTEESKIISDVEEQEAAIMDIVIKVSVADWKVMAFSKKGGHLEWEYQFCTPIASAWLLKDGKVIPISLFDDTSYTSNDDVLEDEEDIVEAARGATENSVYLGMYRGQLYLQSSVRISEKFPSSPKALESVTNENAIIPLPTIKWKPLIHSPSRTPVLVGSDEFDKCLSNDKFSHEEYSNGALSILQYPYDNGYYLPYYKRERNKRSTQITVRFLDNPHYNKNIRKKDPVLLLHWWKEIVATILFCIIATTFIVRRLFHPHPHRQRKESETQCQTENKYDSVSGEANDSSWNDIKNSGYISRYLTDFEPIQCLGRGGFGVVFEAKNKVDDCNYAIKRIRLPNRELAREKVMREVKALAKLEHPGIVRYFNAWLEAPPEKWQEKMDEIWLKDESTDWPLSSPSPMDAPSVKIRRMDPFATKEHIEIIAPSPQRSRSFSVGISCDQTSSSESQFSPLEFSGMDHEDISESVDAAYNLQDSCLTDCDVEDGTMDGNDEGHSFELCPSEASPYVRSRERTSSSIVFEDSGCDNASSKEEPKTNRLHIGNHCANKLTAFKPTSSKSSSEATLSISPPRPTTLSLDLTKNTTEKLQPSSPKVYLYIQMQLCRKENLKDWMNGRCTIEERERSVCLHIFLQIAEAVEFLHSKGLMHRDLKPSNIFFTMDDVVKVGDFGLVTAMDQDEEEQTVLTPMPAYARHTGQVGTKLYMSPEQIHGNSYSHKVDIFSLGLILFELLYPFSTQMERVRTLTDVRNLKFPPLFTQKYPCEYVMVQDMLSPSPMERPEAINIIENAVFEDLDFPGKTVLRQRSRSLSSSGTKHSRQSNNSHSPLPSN

[2] = biological target: T1, Eukaryotic translation initiation factor 2-alpha kinase 3; assay: Dose response cell-based high-throughput screening assay to measure PERK inhibition. [Related pubchem assays: 1416 ]; type: functional
Protein skinhead-1 = biological target: T2, Protein skinhead-1 (Caenorhabditis elegans, UniProt P34707); type: functional
T2 sequence (P34707 whole entry): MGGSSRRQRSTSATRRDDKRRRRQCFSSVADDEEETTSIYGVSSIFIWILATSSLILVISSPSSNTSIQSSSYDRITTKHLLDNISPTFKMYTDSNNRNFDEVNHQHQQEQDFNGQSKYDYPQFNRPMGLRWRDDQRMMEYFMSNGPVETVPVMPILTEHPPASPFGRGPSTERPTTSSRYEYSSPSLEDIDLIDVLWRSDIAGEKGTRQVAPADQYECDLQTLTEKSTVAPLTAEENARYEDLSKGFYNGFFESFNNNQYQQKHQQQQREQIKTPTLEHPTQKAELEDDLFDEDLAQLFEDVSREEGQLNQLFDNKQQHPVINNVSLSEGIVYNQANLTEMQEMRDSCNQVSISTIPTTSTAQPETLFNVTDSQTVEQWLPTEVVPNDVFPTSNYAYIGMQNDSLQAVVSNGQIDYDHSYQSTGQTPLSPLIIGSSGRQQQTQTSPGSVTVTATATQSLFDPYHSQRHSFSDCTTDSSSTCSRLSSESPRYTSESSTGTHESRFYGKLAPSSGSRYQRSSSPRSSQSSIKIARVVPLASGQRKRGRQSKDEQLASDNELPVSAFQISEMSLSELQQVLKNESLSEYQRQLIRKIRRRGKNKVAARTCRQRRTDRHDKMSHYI

X-box-binding protein 1 = X-box-binding protein 1 (Homo sapiens, UniProt P17861); type: functional, Cricetulus griseus;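 note: confirmatory dose-response counter-screen serving a CHOP assay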
Protein RecA = biological target: T3, Protein RecA (Mycobacterium tuberculosis, UniProt P9WHJ3); assay: Fluorescence Cell-Free Homogeneous Dose Retest to Identify Inhibitors of RecA-Intein Splicing Activity. [Related pubchem assays (depositor defined):AID2097, AID2223, AID489010, AID492950]; type: functional
T3 sequence (P9WHJ3 whole entry): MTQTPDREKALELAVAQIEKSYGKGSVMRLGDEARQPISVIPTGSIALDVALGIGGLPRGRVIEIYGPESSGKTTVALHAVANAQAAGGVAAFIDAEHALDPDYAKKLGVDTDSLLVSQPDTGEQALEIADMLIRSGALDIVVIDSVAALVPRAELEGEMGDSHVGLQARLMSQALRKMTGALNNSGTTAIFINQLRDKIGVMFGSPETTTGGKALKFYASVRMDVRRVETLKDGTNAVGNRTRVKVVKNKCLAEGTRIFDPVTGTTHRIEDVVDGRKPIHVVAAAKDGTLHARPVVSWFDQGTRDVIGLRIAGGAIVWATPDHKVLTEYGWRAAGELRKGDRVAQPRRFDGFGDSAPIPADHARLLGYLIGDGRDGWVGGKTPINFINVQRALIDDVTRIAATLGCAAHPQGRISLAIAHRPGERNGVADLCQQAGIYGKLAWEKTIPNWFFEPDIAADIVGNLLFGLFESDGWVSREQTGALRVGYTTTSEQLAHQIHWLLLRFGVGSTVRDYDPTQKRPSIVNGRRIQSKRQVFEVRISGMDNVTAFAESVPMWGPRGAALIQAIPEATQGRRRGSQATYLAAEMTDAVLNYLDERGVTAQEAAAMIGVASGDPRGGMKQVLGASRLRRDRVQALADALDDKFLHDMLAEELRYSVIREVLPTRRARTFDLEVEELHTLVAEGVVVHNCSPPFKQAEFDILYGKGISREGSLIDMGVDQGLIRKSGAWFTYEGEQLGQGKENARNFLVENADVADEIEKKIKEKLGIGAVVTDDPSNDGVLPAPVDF

[3] = biological target: T4, Replicative DNA helicase DnaB (Mycobacterium tuberculosis, UniProt P9WMR3); assay: DnaB intein splicing inhibitors, dose response, biochemical, cell-free fluorescence (AID 449749); type: functional
T4 sequence (P9WMR3 whole entry): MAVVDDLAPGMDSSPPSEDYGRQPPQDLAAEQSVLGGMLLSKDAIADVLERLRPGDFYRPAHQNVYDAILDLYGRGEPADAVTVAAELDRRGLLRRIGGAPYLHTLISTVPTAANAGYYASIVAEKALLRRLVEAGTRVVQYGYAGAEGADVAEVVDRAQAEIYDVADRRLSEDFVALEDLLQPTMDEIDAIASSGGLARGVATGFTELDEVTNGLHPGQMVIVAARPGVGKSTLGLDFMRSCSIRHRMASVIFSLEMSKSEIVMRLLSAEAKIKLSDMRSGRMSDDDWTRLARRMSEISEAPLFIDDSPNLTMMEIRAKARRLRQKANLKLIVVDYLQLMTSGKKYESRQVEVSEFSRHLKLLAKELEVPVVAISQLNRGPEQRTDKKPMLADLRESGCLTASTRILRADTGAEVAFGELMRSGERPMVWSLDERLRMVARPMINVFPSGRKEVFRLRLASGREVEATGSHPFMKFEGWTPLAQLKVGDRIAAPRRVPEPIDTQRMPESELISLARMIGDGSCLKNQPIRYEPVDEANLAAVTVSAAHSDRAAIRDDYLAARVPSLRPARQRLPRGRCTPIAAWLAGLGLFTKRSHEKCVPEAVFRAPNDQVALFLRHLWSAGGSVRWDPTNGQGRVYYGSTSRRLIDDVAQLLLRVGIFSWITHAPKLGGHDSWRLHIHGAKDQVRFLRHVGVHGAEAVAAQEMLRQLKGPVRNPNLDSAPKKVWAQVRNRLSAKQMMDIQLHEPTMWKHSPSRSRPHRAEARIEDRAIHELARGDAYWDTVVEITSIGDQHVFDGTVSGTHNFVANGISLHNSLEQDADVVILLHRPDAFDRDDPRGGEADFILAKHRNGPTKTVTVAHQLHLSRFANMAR

[4] = biological target: T5, Endoribonuclease toxin MazF (Escherichia coli K-12, UniProt P0AE70); assay: MazF toxin RNase activators, dose response, biochemical, fluorescence, single-stranded RNA substrate, uHTS hits (AID 588481); type: functional
T5 sequence (P0AE70 whole entry): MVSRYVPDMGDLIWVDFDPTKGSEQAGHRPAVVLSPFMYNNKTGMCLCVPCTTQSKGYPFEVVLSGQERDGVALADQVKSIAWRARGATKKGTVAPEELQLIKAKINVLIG

HeLa = assay: HeLa cell cytotoxicity, dose response, cytotoxicity control, 24 h, cherry-picked samples (AID 504726); type: functional, cell-based; details: Homo sapiens;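 note: potency for cytotoxicity as loss of luminescence signal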
ORF 73 = biological target: T6, ORF 73 (Human herpesvirus 8, UniProt O40947); assay: inhibitors of C-LANA binding to LBS DNA, dose response, biochemical, fluorescence polarization, cherry-picked samples (AID 504725); parameters: species or system Human gammaherpesvirus 8;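 note: fluorescence polarization of a labeled DNA duplex reporting LANA DNA binding; potency is for inhibitors that block LANA binding to the DNA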
T6 sequence (O40947 whole entry): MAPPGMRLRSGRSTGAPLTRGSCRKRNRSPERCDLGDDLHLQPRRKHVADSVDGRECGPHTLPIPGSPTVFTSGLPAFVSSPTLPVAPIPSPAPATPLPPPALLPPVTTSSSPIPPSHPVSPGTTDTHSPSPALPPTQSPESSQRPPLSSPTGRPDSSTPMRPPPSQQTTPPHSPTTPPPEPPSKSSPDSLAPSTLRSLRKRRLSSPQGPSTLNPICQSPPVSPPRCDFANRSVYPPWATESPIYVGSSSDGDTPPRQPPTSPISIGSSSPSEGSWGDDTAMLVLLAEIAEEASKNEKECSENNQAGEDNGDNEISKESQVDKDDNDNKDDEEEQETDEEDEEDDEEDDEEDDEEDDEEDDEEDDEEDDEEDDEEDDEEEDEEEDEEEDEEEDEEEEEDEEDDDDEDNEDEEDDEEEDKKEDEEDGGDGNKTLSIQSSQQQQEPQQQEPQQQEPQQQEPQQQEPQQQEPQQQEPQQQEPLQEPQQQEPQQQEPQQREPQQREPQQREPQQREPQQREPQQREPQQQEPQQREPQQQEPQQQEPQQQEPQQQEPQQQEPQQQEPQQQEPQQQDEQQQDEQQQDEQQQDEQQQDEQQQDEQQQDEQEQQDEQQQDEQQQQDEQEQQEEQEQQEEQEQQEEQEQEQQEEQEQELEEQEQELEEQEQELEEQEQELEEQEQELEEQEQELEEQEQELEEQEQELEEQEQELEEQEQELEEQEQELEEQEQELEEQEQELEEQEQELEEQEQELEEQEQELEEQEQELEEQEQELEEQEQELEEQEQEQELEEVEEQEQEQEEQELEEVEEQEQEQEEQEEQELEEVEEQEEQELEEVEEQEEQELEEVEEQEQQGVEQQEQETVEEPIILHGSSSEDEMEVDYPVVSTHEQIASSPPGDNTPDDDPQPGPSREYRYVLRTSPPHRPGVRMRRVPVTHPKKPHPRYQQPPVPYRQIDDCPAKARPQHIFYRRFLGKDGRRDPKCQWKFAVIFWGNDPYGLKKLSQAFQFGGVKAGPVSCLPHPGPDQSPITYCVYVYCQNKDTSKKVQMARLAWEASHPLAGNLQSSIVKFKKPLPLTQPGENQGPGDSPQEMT

Salmon testes DNA = assay: DNA intercalators displacing acridine orange, dose response, artefact control for KSHV LANA DNA-binding inhibitor project, biochemical, fluorescence polarization, cherry-picked samples, set 2 (AID 504727); parameters: species or system Salmonidae
[5] = biological target: T5, Endoribonuclease toxin MazF; assay: fluorescent RNA oligo signal without MazF, dose response, counter-screen for MazEF activator project, biochemical, fluorescence, single-stranded RNase substrate (AID 588502); type: functional
[6] = biological target: Lysosomal acid glucosylceramidase (Homo sapiens, UniProt P04062); assay: Dose response cell-based high throughput screening assay to identify enhancers of beta-glucosidase activity. [Related pubchem assays: 784 ]; type: functional
[7] = Cytotoxicity screening for potential Inhibitors of Bacterial Capsule Biogenesis. [Related pubchem assays (depositor defined):AID488970]; type: functional
INS1 = assay: beta cell apoptosis inhibitors, cytokine rescue, dose response, luminescence, retest (AID 449756); type: functional, cell-based; details: Rattus norvegicus, INS1;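 note: cell death triggered by IL-1 beta plus TNF-alpha plus IFN-gamma mixture; protective hits raise ATP signal compared with cytokine alone wells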

Lysosomal acid glucosylceramidase, sequence (P04062 whole entry): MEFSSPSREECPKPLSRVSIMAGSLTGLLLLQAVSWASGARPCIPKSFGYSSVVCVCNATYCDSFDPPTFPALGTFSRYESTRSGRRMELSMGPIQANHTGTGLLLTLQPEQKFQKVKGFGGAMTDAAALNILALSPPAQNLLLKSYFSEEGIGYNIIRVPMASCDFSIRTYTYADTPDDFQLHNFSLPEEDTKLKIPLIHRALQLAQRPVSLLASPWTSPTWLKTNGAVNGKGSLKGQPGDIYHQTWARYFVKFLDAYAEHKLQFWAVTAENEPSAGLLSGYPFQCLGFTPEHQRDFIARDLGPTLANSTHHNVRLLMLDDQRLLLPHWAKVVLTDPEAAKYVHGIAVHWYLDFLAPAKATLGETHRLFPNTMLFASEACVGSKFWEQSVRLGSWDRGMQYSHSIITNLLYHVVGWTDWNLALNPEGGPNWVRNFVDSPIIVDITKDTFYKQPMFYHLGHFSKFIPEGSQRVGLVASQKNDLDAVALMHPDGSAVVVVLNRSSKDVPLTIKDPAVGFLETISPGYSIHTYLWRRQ
X-box-binding protein 1, sequence (P17861 whole entry): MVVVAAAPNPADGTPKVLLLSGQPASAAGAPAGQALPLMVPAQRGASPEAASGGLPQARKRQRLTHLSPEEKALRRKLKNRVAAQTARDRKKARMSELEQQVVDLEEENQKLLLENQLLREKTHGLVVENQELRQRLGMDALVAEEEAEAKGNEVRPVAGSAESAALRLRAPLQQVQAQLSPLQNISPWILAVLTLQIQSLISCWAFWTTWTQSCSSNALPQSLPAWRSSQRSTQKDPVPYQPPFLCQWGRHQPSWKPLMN

With `CCOc1cc(C(N)=O)cc(Br)c1OC` the EC50 [1] was > 55.7 µM (not active), the EC50 [2] was > 55.7 µM (not active) and the IC50 (Protein skinhead-1) was > 100 µM (inactive).

For `CC1(C)CC(C(CCN(Cc2ccccc2)C(=O)c2ccco2)c2ccc(F)cc2)CCO1` (centres undefined), the “Absolute IC50 (XBP1)” value (X-box-binding protein 1) was 10 µM, the EC50 (Protein RecA) was 20.9 µM (active) and the AC50 [3] was 6.07 µM (active).

With `COc1ccc2c(c1)c1nc3ccccc3nc1n2CC(=O)OC(C)C` the EC50 [4] was > 99 µM (inactive), the AC50 (HeLa) was 216 µM (active) and the AC50 (ORF 73) was 77 µM (active). The AC50 (Salmon testes DNA) was 134 µM (active) and the EC50 [5] was 19.6 µM (active).

In the case of `CC(=O)N1C(C(=O)O)CSC1c1cccc(C)c1` (centres undefined), the EC50 [6] is reported as > 50 µM (not active).

In the case of `O=C(N/N=C/c1ccc(O)cc1O)c1ccc(NC(=O)C2CCCCC2)cc1`, the CC50 [7] is reported as 8.95 µM (active) and the AC50 (INS1) is reported as 4.01 µM (active).
